Data from ChEMBL document CHEMBL1201862, “PubChem BioAssay data set” (2004).
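Each compound was tested at five concentrations against cells in 96-well plates for 48 hours. GI50: concentration for 50% inhibition of growth.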 The source made the active and inactive calls. Rule as the data show it: active = GI50 up to about 1.1 µM and inactive = higher.

Tests used:
Assay in all cases: NCI-60 cell line screen, 48 h
MDA-N = system: MDA-N
OVCAR-8 = system: OVCAR-8
A498 = system: A498
SF-268 = system: SF-268
K562 = system: K562
HOP-92 = system: HOP-92
NCI-H460 = system: NCI-H460
SK-MEL-2 = system: SK-MEL-2
ACHN = system: ACHN
IGROV-1 = system: IGROV-1
SF-295 = system: SF-295
NCI/ADR-RES = system: NCI/ADR-RES
Malme-3M = system: Malme-3M
HT-29 = system: HT-29
Hs-578T = system: Hs-578T
786-0 = system: 786-0
SK-MEL-5 = system: SK-MEL-5
KM12 = system: KM12
NCI-H23 = system: NCI-H23
CCRF-CEM = system: CCRF-CEM

Measured: GI50

CN(C)S(=O)(=O)Nc1ccccn1
inactive: MDA-N > 100 µM | OVCAR-8 > 100 µM | A498 > 100 µM | SF-268 > 100 µM | K562 > 100 µM | HOP-92 > 100 µM | NCI-H460 > 100 µM | SK-MEL-2 > 100 µM | ACHN > 100 µM | IGROV-1 > 100 µM | SF-295 > 100 µM | NCI/ADR-RES > 100 µM | Malme-3M > 100 µM | HT-29 > 100 µM | Hs-578T > 100 µM | 786-0 > 100 µM | SK-MEL-5 > 100 µM | KM12 > 100 µM | NCI-H23 > 100 µM

Nc1ccccc1C(=O)NC(=O)Nc1ccc(Oc2ncc(Br)cn2)c(Cl)c1
active: MDA-N < 0.01 µM | OVCAR-8 0.0119 µM | A498 < 0.01 µM | SF-268 < 0.01 µM | K562 < 0.01 µM | HOP-92 0.217 µM | NCI-H460 < 0.01 µM | SK-MEL-2 < 0.0929 µM | ACHN 0.0614 µM | IGROV-1 < 0.0118 µM | SF-295 < 0.01 µM | NCI/ADR-RES < 0.01 µM | Malme-3M < 0.01 µM | HT-29 < 0.01 µM | Hs-578T < 0.01 µM | 786-0 < 0.01 µM | SK-MEL-5 < 0.01 µM | KM12 < 0.01 µM | NCI-H23 0.0108 µM

COC(C)C(O)(C(=O)OCC1=CCN2CCC(O)C12)C(C)(C)O (centres undefined)
inactive: MDA-N > 100 µM | OVCAR-8 > 100 µM | CCRF-CEM > 100 µM | A498 > 100 µM | SF-268 > 100 µM | HOP-92 > 100 µM | NCI-H460 > 100 µM | SK-MEL-2 > 100 µM | ACHN > 100 µM | IGROV-1 > 100 µM | SF-295 > 100 µM | NCI/ADR-RES > 100 µM | Malme-3M > 100 µM | HT-29 > 100 µM | Hs-578T > 100 µM | 786-0 > 100 µM | SK-MEL-5 > 100 µM | KM12 > 100 µM | NCI-H23 > 100 µM

CS(=O)(=O)c1cc(=O)c2ccccc2s1
inactive: MDA-N 4.46 µM | OVCAR-8 2.93 µM | CCRF-CEM 1.53 µM | A498 17.1 µM | SF-268 14.1 µM | K562 1.33 µM | HOP-92 1.8 µM | NCI-H460 18.1 µM | SK-MEL-2 15.3 µM | ACHN 2.74 µM | IGROV-1 18.5 µM | SF-295 13.7 µM | NCI/ADR-RES 18 µM | Malme-3M 1.8 µM | HT-29 5.01 µM | Hs-578T 26.6 µM | 786-0 5.55 µM | SK-MEL-5 14.3 µM | KM12 15.5 µM | NCI-H23 9.06 µM

N#Cc1c(N)c2c(c(-c3ccccc3)c1-c1ccccc1)C(=O)N(NC(=O)c1ccccc1)C2=O
inactive: MDA-N 72.6 µM | OVCAR-8 > 100 µM | CCRF-CEM 42.3 µM | A498 41.9 µM | SF-268 > 100 µM | K562 96.8 µM | HOP-92 60.5 µM | NCI-H460 55.1 µM | SK-MEL-2 > 100 µM | ACHN > 100 µM | IGROV-1 61.4 µM | SF-295 > 100 µM | NCI/ADR-RES 89.5 µM | Malme-3M > 100 µM | Hs-578T 90.6 µM | 786-0 76.9 µM | SK-MEL-5 68.7 µM | KM12 > 100 µM

COC(=O)/C=C/c1ccc2c(c1)CC1(C2)Cc2cc3c(cc2C1=O)CCC3 (centres undefined)
inactive: MDA-N > 100 µM | OVCAR-8 25.1 µM | CCRF-CEM > 100 µM | A498 > 100 µM | SF-268 46.2 µM | K562 > 100 µM | HOP-92 35.3 µM | NCI-H460 80.9 µM | SK-MEL-2 > 100 µM | ACHN 39.5 µM | IGROV-1 24.3 µM | SF-295 34.1 µM | NCI/ADR-RES 42.5 µM | Malme-3M 42 µM | Hs-578T 25.2 µM | 786-0 27 µM | SK-MEL-5 74.8 µM | KM12 56.8 µM

COc1cc(CNC(=O)[C@H](Cc2ccc(O)cn2)NC(C)=O)cc(OC)c1
inactive: MDA-N > 100 µM | CCRF-CEM > 100 µM | A498 > 100 µM | SF-268 > 100 µM | K562 83 µM | HOP-92 13.2 µM | NCI-H460 > 100 µM | SK-MEL-2 > 100 µM | ACHN > 100 µM | IGROV-1 36.3 µM | SF-295 > 100 µM | NCI/ADR-RES > 100 µM | Malme-3M > 100 µM | HT-29 41 µM | Hs-578T > 100 µM | 786-0 > 100 µM | SK-MEL-5 67 µM | KM12 > 100 µM | NCI-H23 > 100 µM

CCO[C@@]12CCC3CC4CC[C@@](OCC)(O1)C4C32 (some centres undefined)
inactive: MDA-N > 100 µM | OVCAR-8 > 100 µM | CCRF-CEM > 100 µM | A498 > 100 µM | SF-268 > 100 µM | K562 > 100 µM | HOP-92 > 100 µM | NCI-H460 > 100 µM | SK-MEL-2 > 100 µM | ACHN > 100 µM | IGROV-1 > 100 µM | SF-295 > 100 µM | NCI/ADR-RES > 100 µM | Malme-3M > 100 µM | HT-29 > 100 µM | Hs-578T > 100 µM | 786-0 > 100 µM | SK-MEL-5 > 100 µM | KM12 > 100 µM | NCI-H23 > 100 µM

COC1C(O)C(C)OC(O[C@H]2CC[C@@]3(C)C(CC[C@@H]4[C@@H]3CC[C@]3(C)[C@@H](C(C)OC5OC(CO)C(O)C(O)C5O)CC[C@]43O)C2)C1O (some centres undefined)
inactive: MDA-N > 25 µM | OVCAR-8 > 25 µM | CCRF-CEM > 25 µM | A498 > 25 µM | SF-268 > 25 µM | K562 > 25 µM | HOP-92 > 25 µM | NCI-H460 > 25 µM | SK-MEL-2 > 25 µM | ACHN > 25 µM | IGROV-1 > 25 µM | SF-295 > 25 µM | NCI/ADR-RES > 25 µM | HT-29 > 25 µM | Hs-578T > 25 µM | 786-0 > 25 µM | SK-MEL-5 > 25 µM | KM12 > 25 µM | NCI-H23 > 25 µM

COc1ccc(-c2nnc3nc4ccccc4n3c2O)cc1
inactive: MDA-N > 100 µM | OVCAR-8 > 100 µM | CCRF-CEM > 100 µM | A498 > 100 µM | SF-268 > 100 µM | HOP-92 54 µM | NCI-H460 > 100 µM | SK-MEL-2 > 100 µM | ACHN > 100 µM | IGROV-1 > 100 µM | SF-295 10 µM | NCI/ADR-RES > 100 µM | Malme-3M > 100 µM | HT-29 > 100 µM | Hs-578T > 100 µM | 786-0 > 100 µM | SK-MEL-5 > 100 µM | KM12 > 100 µM | NCI-H23 > 100 µM

COc1cc2c(/C=C3/C(=O)N(C)c4ccccc43)c(Cl)[nH]c2cc1C
inactive: A498 3.19 µM | HOP-92 1.81 µM
active: MDA-N 0.0352 µM | OVCAR-8 0.324 µM | CCRF-CEM 0.303 µM | SF-268 0.207 µM | K562 0.0966 µM | NCI-H460 0.295 µM | SK-MEL-2 0.325 µM | ACHN 0.51 µM | IGROV-1 0.167 µM | SF-295 0.0964 µM | NCI/ADR-RES 0.17 µM | HT-29 0.328 µM | Hs-578T 0.226 µM | 786-0 0.3 µM | SK-MEL-5 0.185 µM | KM12 0.132 µM | NCI-H23 0.203 µM
